Assays:
[1] = literature values of Kovacs, Mant, Hodges 2006; cited from earlier work
[2] = Relative hydrophobicity by reversed-phase HPLC retention time (method of Hodges and coworkers); format: physicochemical; conditions: for retention time, tR (measure of hydrophobicity): Kromasil C18, 0.2% TFA water/ACN linear gradient 0.25% ACN/min from 55% B, 0.3 mL/min, 25° C., co-injection, FIG. 4; for retention time difference ΔtR relative to allo-D-Thr/allo-L-Thr pair: same reversed-phase HPLC conditions, CF3 vs CH3
Protocol: As fluorination can decrease the hydrophilicity of a molecule [(a) Böhm, H-J.; Banner, D.; Bendels, S.; Kansy, M.; Kuhn, B.; Müller, K.; Obst-Sander, U.; Stahl, M. Chem BioChem. 2004, 5, 637-643. […] 1996, 276, 1049-1057.], the hydrophobicity of Fmoc-tfT (1a and 1b) relative to their non-fluorinated counterparts was determined. The chromatography method developed by Hodges and coworkers [Kovacs, J. M.; Mant, C. T.; Hodges, R. S. Biopolymers (Peptide Science) 2006, 84, 283-297.], who determined the relative hydrophobicity of 23 L-amino acids and their D-enantiomers, was used. As pointed out by Hodges and coworkers [Kovacs, J. M.; Mant, C. T.; Hodges, R. S. Biopolymers (Peptide Science) 2006, 84, 283-297.], a criterion for measuring true hydrophobicity of an amino acid is that the D/L enantiomers should give the same retention time, tR. […] All of the enantiomeric pairs, allo-D-Thr/allo-L-Thr (tR=7.2 min), D-Thr/L-Thr (tR=9.2 min) and allo-D-tfT/allo-L-tfT (tR=11.6 min), co-elute, satisfying the criterion established by Hodges and coworkers. [Kovacs, J. M.; Mant, C. T.; Hodges, R. S. Biopolymers (Peptide Science) 2006, 84, 283-297.] In reversed-phase chromatography, a larger retention time typically indicates a more hydrophobic molecule. The allo-D-tfT/allo-L-tfT pair is more retentive than the allo-D-Thr/allo-L-Thr pair (ΔtR=11.6−7.2=4.2 min). […] [Kovacs, J. M.; Mant, C. T.; Hodges, R. S. Biopolymers (Peptide Science) 2006, 84, 283-297.]
In FIG. 4, all chromatography runs followed exactly the same conditions used by Hodges and coworkers [Zhang, X. G.; Ni, W. J.; van der Donk, W. A. J. Org. Chem. 2005, 70, 6685-6692.]. The HPLC conditions are as follows: column, Kromasil C18 (150 mm×2.1 mm I.D., 5 μm, 100 Å pore size, Higgins Analytical, Inc., CA); mobile phase, A: 0.2% TFA (trifluoroacetic acid) in water, B: 0.2% TFA in ACN (acetonitrile); condition, linear AB gradient (0.25% ACN/min, starting from 55% B); flow rate, 0.3 mL/min; temperature, 25° C. 1a and 1b were purified by silica-gel column chromatography and dissolved in mobile phase B before injection. allo-D-N-Fmoc-O-tert-butyl-Thr and allo-L-N-Fmoc-O-tert-butyl-Thr were from BACHEM California Inc. D-N-Fmoc-O-tert-butyl-Thr and L-N-Fmoc-O-tert-butyl-Thr were from Novabiochem.

## C[C@H](N)C(=O)O [Ala]
[1]
  retention time difference ΔtR relative to Gly: 2.8 min

## N[C@@H](CS)C(=O)O [Cys, cysteine]
[1]
  retention time difference ΔtR relative to Ala: 4.8 min

## C[C@H](OC(C)(C)C)[C@@H](NC(=O)OCC1c2ccccc2-c2ccccc21)C(=O)O [D-Thr, (2R,3S)-N-Fmoc-O-tert-butyl-threonine]
[2]
  retention time, tR (measure of hydrophobicity): 9.2 min

## C[C@@H](OC(C)(C)C)[C@H](NC(=O)OCC1c2ccccc2-c2ccccc21)C(=O)O [L-Thr, (2S,3R)-N-Fmoc-O-tent-butyl-threonine]
[2]
  retention time, tR (measure of hydrophobicity): 9.2 min

## CC(C)[C@H](N)C(=O)O [Val]
[1]
  retention time difference ΔtR relative to Ala: 10.6 min

## C[C@@H](OC(C)(C)C)[C@@H](NC(=O)OCC1c2ccccc2-c2ccccc21)C(=O)O [allo-D-Thr, (2R,3R)-N-Fmoc-O-tert-butyl-threonine]
[2]
  retention time, tR (measure of hydrophobicity): 7.2 min

## CC(C)(C)O[C@@H]([C@@H](NC(=O)OCC1c2ccccc2-c2ccccc21)C(=O)O)C(F)(F)F [allo-D-tfT, (2R,3S)-2-(((9H-fluoren-9-yl)methoxy)carbonylamino)-3-tert-butoxy-4,4,4-trifluorobutanoic acid]
[2]
  retention time, tR (measure of hydrophobicity): 11.6 min
  retention time difference ΔtR relative to allo-D-Thr/allo-L-Thr pair: 4.2 min

## C[C@H](OC(C)(C)C)[C@H](NC(=O)OCC1c2ccccc2-c2ccccc21)C(=O)O [allo-L-Thr, (2S,3S)-N-Fmoc-O-tent-butyl-threonine]
[2]
  retention time, tR (measure of hydrophobicity): 7.2 min

## CC(C)(C)O[C@H]([C@H](NC(=O)OCC1c2ccccc2-c2ccccc21)C(=O)O)C(F)(F)F [allo-L-tfT, (2S,3R)-4,4,4-trifluoro-N-Fmoc-O-tert-butyl-threonine]
[2]
  retention time, tR (measure of hydrophobicity): 11.6 min
  retention time difference ΔtR relative to allo-D-Thr/allo-L-Thr pair: 4.2 min
